Reference: paper PMC3532055 (Journal of medicinal chemistry, 2012)

Key:
[1] = molecular target: T1, α7-nAChRs (Rattus norvegicus, UniProt Q05941); test: Binding test at α7-nAChRs
[2] = molecular target: T1, α7-nAChRs; test: Binding test at α7*-nAChRs; details: endogenous receptors prepared from rat forebrain
[3] = tested on: BALB/cJ male mice; test: Mouse forced swim test; details: vs vehicle
[4] = molecular target: α2β2 (Rattus norvegicus, UniProt P12389+P12390); test: [3H]epibatidine competition binding, rat α2β2 nAChR; details: read-out: Ki α2β2, ± SEM
[5] = molecular target: human α7-nAChRs; details: read-out: Ki human α7-nAChRs; cited from earlier work
[6] = 5, 10, and 30 mg/kg ip, 30 min before 6 min trial

## OCCc1cc(-c2cncc(OC[C@@H]3CCN3)c2)on1 [Compound 13, 2-[5-[5-((S)Azetidin-2-ylmethoxy)-3-pyridinyl]-3-isoxazolyl]ethanol]
[1]
  activity at α7-nAChRs: no activity
[2]
  activity at α7*-nAChRs: no activity

## FC(F)CCc1cc(-c2cncc(OC[C@@H]3CCN3)c2)on1 [Compound 25, 3-(2(S)-Azetidinylmethoxy)-5-[3-(3,3-difluoropropyl)-5-isoxazolyl]pyridine]
[1]
  activity at α7-nAChRs: no activity
[2]
  activity at α7*-nAChRs: no activity
[3]; [6]
  immobility in the mouse forced swim test: reduced immobility

## FCCCc1cc(-c2cncc(OC[C@@H]3CCN3)c2)on1 [Compound 26, 3-(2(S)-Azetidinylmethoxy)-5-[3-(3-fluoropropyl)-5-isoxazolyl]pyridine]
[3]; [6]
  immobility in the mouse forced swim test: reduced immobility

## c1ncc(-c2cc(CCN3CCOCC3)no2)cc1OC[C@@H]1CCN1 [Compound 27, 4-[2-[5-[5-(2(S)-Azetidinylmethoxy)-3-pyridinyl]-3-isoxazolyl]ethyl]morpholine]
[4]
  Ki: 12.3 ± 2.1 nM

## c1ncc(-c2cc(CCN3CCOCC3)no2)cc1OC[C@@H]1CCCN1 [Compound 28, 4-[2-[5-[5-(2(S)-Pyrrolidinylmethoxy)-3-pyridinyl]-3-isoxazolyl]ethyl]morpholine]
[4]
  Ki: 74 ± 13 nM

## CCc1cc(-c2cncc(OC[C@@H]3CCN3)c2)on1 [Compound 38, 3-(2(S)-Azetidinylmethoxy)-5-(3-ethyl-5-isoxazolyl)pyridine]
[1]
  activity at α7-nAChRs: no activity
[2]
  activity at α7*-nAChRs: no activity
[3]; 1, 3, 5, 10, and 30 mg/kg ip, 30 min before 6 min trial
  immobility in the mouse forced swim test: reduced immobility

## c1cncc(OC[C@@H]2CCN2)c1 [Compound A-85380, 3-(2(S)-azetidinylmethoxy) pyridine]
[5]
  Ki: 148 nM

## CN[C@H]1CC[C@@H](c2ccc(Cl)c(Cl)c2)c2ccccc21 [sertraline, reference compound]
[3]; 20 mg/kg ip, positive control
  immobility in the mouse forced swim test: expected decrease in immobility
